Assay results: publication PMC5218480 (PLoS ONE, 2017)

System: MV-4-11 cells
Experiment: Gene expression microarray analysis (Affymetrix PrimeView) and GSEA
Format: cell-based, human
Design: RFU PODN (11730768_x_at) / Fold change /veh PODN (11730768_x_at) / RFU LINC00158 (11744669_a_at) / Fold change /veh LINC00158 (11744669_a_at) / RFU DUSP10 (11751237_a_at) / Fold change /veh DUSP10 (11751237_a_at) / RFU ID3 (11757404_x_at) / Fold change /veh ID3 (11757404_x_at) / RFU PLEKHG5 (11737974_s_at) / Fold change /veh PLEKHG5 (11737974_s_at) / RFU LRRC4B (11730491_at) / Fold change /veh LRRC4B (11730491_at) / RFU GIMAP4 (11747438_a_at) / Fold change /veh GIMAP4 (11747438_a_at) / RFU KRT8 (11758183_x_at) / Fold change /veh KRT8 (11758183_x_at) / RFU CNN1 (11734310_a_at) / Fold change /veh CNN1 (11734310_a_at) / RFU VPS37D (11726825_at) / Fold change /veh VPS37D (11726825_at) / RFU C10orf10 (11716522_x_at) / Fold change /veh C10orf10 (11716522_x_at) / RFU KIR2DL2 /// KIR2DL4 /// KIR2DL5A /// KIR2DL5B /// KIR2DS1 /// KIR2DS2 /// KIR2DS3 /// KIR2DS4 /// KIR3DL3 /// KIR3DL3 /// KIR3DS1 (11738374_at) / Fold change /veh KIR2DL2 /// KIR2DL4 /// KIR2DL5A /// KIR2DL5B /// KIR2DS1 /// KIR2DS2 /// KIR2DS3 /// KIR2DS4 /// KIR3DL3 /// KIR3DL3 /// KIR3DS1 (11738374_at) / RFU C1QL1 (11718748_at) / Fold change /veh C1QL1 (11718748_at) / RFU TMPRSS4 (11747572_a_at) / Fold change /veh TMPRSS4 (11747572_a_at) / RFU HAMP (11756126_x_at) / Fold change /veh HAMP (11756126_x_at) / RFU RNFT2 (11725882_a_at) / Fold change /veh RNFT2 (11725882_a_at) / RFU NR4A2 (11747474_a_at) / Fold change /veh NR4A2 (11747474_a_at) / RFU ABCC12 (11746883_a_at) / Fold change /veh ABCC12 (11746883_a_at) / RFU TMEM136 (11760407_x_at) / Fold change /veh TMEM136 (11760407_x_at) / RFU CLDN22 /// WWC2 (11732394_at) / Fold change /veh CLDN22 /// WWC2 (11732394_at) / RFU HLA-DPB1 (11760878_x_at) / Fold change /veh HLA-DPB1 (11760878_x_at) / RFU SPINT1 (11716480_a_at) / Fold change /veh SPINT1 (11716480_a_at) / RFU GAP43 (11754022_s_at) / Fold change /veh GAP43 (11754022_s_at) / RFU A4GNT (11735810_at) / Fold change /veh A4GNT (11735810_at) / RFU PRB3 (11715151_x_at) / Fold change /veh PRB3 (11715151_x_at) / RFU TUBB4B (11761932_at) / Fold change /veh TUBB4B (11761932_at) / RFU CAPN14 (11732068_a_at) / Fold change /veh CAPN14 (11732068_a_at) / RFU TMCC2 (11721928_a_at) / Fold change /veh TMCC2 (11721928_a_at) / RFU IRGQ (11745062_a_at) / Fold change /veh IRGQ (11745062_a_at) / RFU FAM174B (11720279_a_at) / Fold change /veh FAM174B (11720279_a_at) / RFU TMPRSS4 (11748680_a_at) / Fold change /veh TMPRSS4 (11748680_a_at) / RFU FAM212B (11763350_a_at) / Fold change /veh FAM212B (11763350_a_at) / RFU PLEKHG5 (11743358_a_at) / Fold change /veh PLEKHG5 (11743358_a_at) / RFU ZSCAN30 (11745921_a_at) / Fold change /veh ZSCAN30 (11745921_a_at) / RFU CMKLR1 (11741424_a_at) / Fold change /veh CMKLR1 (11741424_a_at) / RFU LOC101060620 /// MAPK8IP1 (11723275_at) / Fold change /veh LOC101060620 /// MAPK8IP1 (11723275_at) / RFU SPTSSB (11747773_x_at) / Fold change /veh SPTSSB (11747773_x_at) / RFU PRSS12 (11739890_at) / Fold change /veh PRSS12 (11739890_at) / RFU BIN1 (11741810_x_at) / Fold change /veh BIN1 (11741810_x_at) / RFU WNT11 (11732464_a_at) / Fold change /veh WNT11 (11732464_a_at) / RFU C10orf10 (11716521_a_at) / Fold change /veh C10orf10 (11716521_a_at) / RFU C5orf56 (11738089_at) / Fold change /veh C5orf56 (11738089_at) / RFU CYB561 (11721691_x_at) / Fold change /veh CYB561 (11721691_x_at) / RFU ANKRD19P (11752326_a_at) / Fold change /veh ANKRD19P (11752326_a_at) / RFU OR2T12 /// OR2T33 /// OR2T8 (11738714_s_at) / Fold change /veh OR2T12 /// OR2T33 /// OR2T8 (11738714_s_at) / RFU VCAN (11748164_a_at) / Fold change /veh VCAN (11748164_a_at) / RFU JSRP1 (11732532_at) / Fold change /veh JSRP1 (11732532_at) / RFU KRTAP10-11 (11738290_x_at) / Fold change /veh KRTAP10-11 (11738290_x_at) / RFU MYO3A (11730013_a_at) / Fold change /veh MYO3A (11730013_a_at) / RFU EBF3 (11725865_a_at) / Fold change /veh EBF3 (11725865_a_at) / RFU CAMK2N1 (11719241_x_at) / Fold change /veh CAMK2N1 (11719241_x_at) / RFU C5orf56 (11738088_a_at) / Fold change /veh C5orf56 (11738088_a_at) / RFU OLFML3 (11715873_a_at) / Fold change /veh OLFML3 (11715873_a_at) / RFU LOC100653217 /// NTM (11731650_a_at) / Fold change /veh LOC100653217 /// NTM (11731650_a_at) / RFU MAPK11 (11762145_a_at) / Fold change /veh MAPK11 (11762145_a_at) / RFU FIZ1 (11724087_x_at) / Fold change /veh FIZ1 (11724087_x_at) / RFU OASL (11726364_x_at) / Fold change /veh OASL (11726364_x_at) / RFU SOX15 (11748057_x_at) / Fold change /veh SOX15 (11748057_x_at) / RFU CD79A (11719716_a_at) / Fold change /veh CD79A (11719716_a_at) / RFU HIST1H1D (11736915_at) / Fold change /veh HIST1H1D (11736915_at) / RFU CASKIN2 (11723855_a_at) / Fold change /veh CASKIN2 (11723855_a_at) / RFU LOC730098 (11760151_x_at) / Fold change /veh LOC730098 (11760151_x_at) / RFU OR4N2 (11742367_at) / Fold change /veh OR4N2 (11742367_at) / RFU PRRT2 (11749266_a_at) / Fold change /veh PRRT2 (11749266_a_at) / RFU SNX32 (11753110_a_at) / Fold change /veh SNX32 (11753110_a_at) / RFU CDHR5 (11726645_a_at) / Fold change /veh CDHR5 (11726645_a_at) / RFU RCAN1 (11760418_a_at) / Fold change /veh RCAN1 (11760418_a_at) / RFU FAM167A (11723789_a_at) / Fold change /veh FAM167A (11723789_a_at) / RFU FAM26E (11764081_at) / Fold change /veh FAM26E (11764081_at) / RFU ISYNA1 (11749810_s_at) / Fold change /veh ISYNA1 (11749810_s_at) / RFU ACY1 (11761880_at) / Fold change /veh ACY1 (11761880_at) / RFU 11764098_at / Fold change /veh 11764098_at / RFU SAMD14 (11745864_x_at) / Fold change /veh SAMD14 (11745864_x_at) / RFU NPB (11741838_a_at) / Fold change /veh NPB (11741838_a_at) / RFU TMPRSS6 (11731388_a_at) / Fold change /veh TMPRSS6 (11731388_a_at) / RFU KRTAP10-2 (11738614_at) / Fold change /veh KRTAP10-2 (11738614_at) / RFU ARHGAP8 /// PRR5-ARHGAP8 (11727945_x_at) / Fold change /veh ARHGAP8 /// PRR5-ARHGAP8 (11727945_x_at) / RFU KRTAP5-7 /// NADSYN1 (11734609_at) / Fold change /veh KRTAP5-7 /// NADSYN1 (11734609_at) / RFU RASL12 (11751679_a_at) / Fold change /veh RASL12 (11751679_a_at) / RFU CDKN2B (11736163_a_at) / Fold change /veh CDKN2B (11736163_a_at) / RFU PRF1 (11729649_at) / Fold change /veh PRF1 (11729649_at) / RFU, ZNF638 /// ZNF638-IT1 / Fold change vs veh, ZNF638 /// ZNF638-IT1 / RFU, PANK3 / Fold change vs veh, PANK3 / RFU, SH3YL1 / Fold change vs veh, SH3YL1 / RFU, ZEB2 / Fold change vs veh, ZEB2 / RFU, NRIP1 / Fold change vs veh, NRIP1 / RFU, PTTG1IP / Fold change vs veh, PTTG1IP / RFU, CAPN2 / Fold change vs veh, CAPN2 / RFU, MED14 / Fold change vs veh, MED14 / RFU, SNORA58 / Fold change vs veh, SNORA58 / RFU, C1orf63 / Fold change vs veh, C1orf63 / RFU, LRRFIP1 / Fold change vs veh, LRRFIP1 / RFU, NDUFAF7 / Fold change vs veh, NDUFAF7 / RFU, SLC12A2 / Fold change vs veh, SLC12A2 / RFU, IBTK / Fold change vs veh, IBTK / RFU, ESF1 / Fold change vs veh, ESF1 / Fold change vs veh, TMEM50B / RFU, TAOK1 / Fold change vs veh, TAOK1 / RFU, ACBD3 / Fold change vs veh, ACBD3 / RFU, TMA16 / Fold change vs veh, TMA16 / RFU, RWDD3 / Fold change vs veh, RWDD3 / RFU, BCAT1 / Fold change vs veh, BCAT1 / RFU, EDEM3 / Fold change vs veh, EDEM3 / RFU, TMEM33 / Fold change vs veh, TMEM33 / RFU, WDR75 / Fold change vs veh, WDR75 / RFU, AHCTF1 / Fold change vs veh, AHCTF1 / RFU, TFRC / Fold change vs veh, TFRC / RFU, ZDHHC17 / Fold change vs veh, ZDHHC17 / RFU, NOM1 / Fold change vs veh, NOM1 / RFU, ARL8B / Fold change vs veh, ARL8B / RFU, ZBTB11 / Fold change vs veh, ZBTB11 / RFU, TAMM41 / Fold change vs veh, TAMM41 / RFU, KIAA1704 /// LOC100996395 / Fold change vs veh, KIAA1704 /// LOC100996395 / RFU, ING1 / Fold change vs veh, ING1 / RFU, TRMT61B / Fold change vs veh, TRMT61B / RFU, FUBP3 / Fold change vs veh, FUBP3 / RFU, TP53 / Fold change vs veh, TP53 / RFU, TNKS2 / Fold change vs veh, TNKS2 / RFU, ZFP14 / Fold change vs veh, ZFP14 / RFU, ACTR2 / Fold change vs veh, ACTR2 / RFU, PPP3R1 / Fold change vs veh, PPP3R1 / RFU, PIK3R1 / Fold change vs veh, PIK3R1 / RFU, HNRNPA1 / Fold change vs veh, HNRNPA1 / RFU, RNF170 / Fold change vs veh, RNF170 / RFU, ZNF28 / Fold change vs veh, ZNF28 / RFU, RNGTT / Fold change vs veh, RNGTT / RFU, OGT / Fold change vs veh, OGT / RFU, BRD1 / Fold change vs veh, BRD1 / RFU, MARS / Fold change vs veh, MARS / RFU, ZNF655 / Fold change vs veh, ZNF655 / RFU, FAHD1 / Fold change vs veh, FAHD1 / RFU, BDP1 / Fold change vs veh, BDP1 / RFU, LRRCC1 / Fold change vs veh, LRRCC1 / RFU, ARID1A / Fold change vs veh, ARID1A / RFU, ZNF146 / Fold change vs veh, ZNF146 / RFU, ZNF330 / Fold change vs veh, ZNF330 / RFU, GPN3 / Fold change vs veh, GPN3 / RFU, C9orf123 / Fold change vs veh, C9orf123 / RFU, N4BP2L2 / Fold change vs veh, N4BP2L2 / RFU, ARFIP1 / Fold change vs veh, ARFIP1 / RFU, FAM179B / Fold change vs veh, FAM179B / RFU, BCL10 / Fold change vs veh, BCL10 / RFU, UHRF1BP1L / Fold change vs veh, UHRF1BP1L / RFU, BET1 / Fold change vs veh, BET1 / RFU, CNOT2 / Fold change vs veh, CNOT2 / RFU, ZNF268 / Fold change vs veh, ZNF268 / Fold change vs veh, ZNF507 / RFU, DGCR2 / Fold change vs veh, DGCR2 / RFU, WDSUB1 / Fold change vs veh, WDSUB1 / Fold change vs veh, HSP90B1 /// MIR3652 / RFU, ADSS / Fold change vs veh, ADSS / RFU, GK / Fold change vs veh, GK / RFU, ZNF148 / Fold change vs veh, ZNF148 / RFU, TAF9 / Fold change vs veh, TAF9 / RFU, SLC1A5 / Fold change vs veh, SLC1A5 / RFU, SLMO2 / Fold change vs veh, SLMO2 / RFU, ABCC4 / Fold change vs veh, ABCC4 / RFU, LOC101060439 /// RAP1B / Fold change vs veh, LOC101060439 /// RAP1B / RFU, RFX7 / Fold change vs veh, RFX7 / RFU, GTPBP10 / Fold change vs veh, GTPBP10 / RFU, CNEP1R1 / Fold change vs veh, CNEP1R1 / RFU, BIVM-ERCC5 /// ERCC5 / Fold change vs veh, BIVM-ERCC5 /// ERCC5 / RFU, ILF3 / Fold change vs veh, ILF3 / RFU 11762660_at / Fold change /veh 11762660_at / RFU VCAN (11757783_s_at) / Fold change /veh VCAN (11757783_s_at) / RFU DDX43 (11728927_at) / Fold change /veh DDX43 (11728927_at) / RFU KRT8 (11758188_x_at) / Fold change /veh KRT8 (11758188_x_at) / RFU NKD1 (11759106_at) / Fold change /veh NKD1 (11759106_at) / RFU SRD5A1 (11742802_a_at) / Fold change /veh SRD5A1 (11742802_a_at) / RFU TPSAB1 /// TPSB2 (11721975_s_at) / Fold change /veh TPSAB1 /// TPSB2 (11721975_s_at) / RFU GSTM3 (11746129_a_at) / Fold change /veh GSTM3 (11746129_a_at) / RFU IL23R (11737362_x_at) / Fold change /veh IL23R (11737362_x_at) / RFU TMEM51 (11727254_a_at) / Fold change /veh TMEM51 (11727254_a_at) / RFU PIWIL2 (11732686_x_at) / Fold change /veh PIWIL2 (11732686_x_at) / RFU ORM1 (11744905_x_at) / Fold change /veh ORM1 (11744905_x_at) / RFU CCDC152 (11743942_at) / Fold change /veh CCDC152 (11743942_at) / RFU ECM1 (11717891_a_at) / Fold change /veh ECM1 (11717891_a_at) / RFU IL23R (11748794_a_at) / Fold change /veh IL23R (11748794_a_at) / RFU TNFAIP8L3 (11732012_x_at) / Fold change /veh TNFAIP8L3 (11732012_x_at) / RFU MBOAT4 (11741988_at) / Fold change /veh MBOAT4 (11741988_at) / RFU 11764193_at / Fold change /veh 11764193_at / RFU TMEM53 (11763286_at) / Fold change /veh TMEM53 (11763286_at) / RFU MAGEB2 (11727129_at) / Fold change /veh MAGEB2 (11727129_at) / RFU TMEM200A (11744735_a_at) / Fold change /veh TMEM200A (11744735_a_at) / RFU CCDC152 (11751479_a_at) / Fold change /veh CCDC152 (11751479_a_at) / RFU FAM211A (11726209_a_at) / Fold change /veh FAM211A (11726209_a_at) / RFU RGS16 (11746705_a_at) / Fold change /veh RGS16 (11746705_a_at) / RFU VCAN (11755009_s_at) / Fold change /veh VCAN (11755009_s_at) / RFU RHOB (11743442_s_at) / Fold change /veh RHOB (11743442_s_at) / RFU RGS16 (11720943_a_at) / Fold change /veh RGS16 (11720943_a_at) / RFU RGS16 (11720944_at) / Fold change /veh RGS16 (11720944_at) / RFU, VPS4B / Fold change vs veh, VPS4B / RFU, CREB1 / Fold change vs veh, CREB1 / RFU, DNAJC13 / Fold change vs veh, DNAJC13 / RFU, GNAQ / Fold change vs veh, GNAQ / RFU, CDK5R1 / Fold change vs veh, CDK5R1 / RFU, ZRANB3 / Fold change vs veh, ZRANB3 / RFU, CUL4A / Fold change vs veh, CUL4A / RFU, CCNY / Fold change vs veh, CCNY / RFU, UFL1 / Fold change vs veh, UFL1 / RFU, COG3 / Fold change vs veh, COG3 / RFU, DIAPH2 / Fold change vs veh, DIAPH2 / RFU, SKA2 / Fold change vs veh, SKA2 / RFU, AFF3 / Fold change vs veh, AFF3 / RFU, LMF1 / Fold change vs veh, LMF1 / RFU, IPO11 / Fold change vs veh, IPO11 / RFU, DFFB / Fold change vs veh, DFFB / RFU, FOXP1 / Fold change vs veh, FOXP1 / RFU, CARD8 / Fold change vs veh, CARD8 / RFU, STRN3 / Fold change vs veh, STRN3 / RFU, ADK / Fold change vs veh, ADK / RFU, RASSF2 / Fold change vs veh, RASSF2 / RFU, WIPF1 / Fold change vs veh, WIPF1 / RFU, LARP1B / Fold change vs veh, LARP1B / RFU, RASA1 / Fold change vs veh, RASA1 / RFU, RB1 / Fold change vs veh, RB1 / RFU, PPFIA1 / Fold change vs veh, PPFIA1 / RFU, MAT2A / Fold change vs veh, MAT2A / RFU, CCT5 / Fold change vs veh, CCT5 / RFU, WDR92 / Fold change vs veh, WDR92 / RFU, CUX1 / Fold change vs veh, CUX1 / RFU, TTC7A / Fold change vs veh, TTC7A / RFU, TMEM135 / Fold change vs veh, TMEM135 / RFU, DEPTOR / Fold change vs veh, DEPTOR / RFU, CPM / Fold change vs veh, CPM / RFU, DNAJB6 / Fold change vs veh, DNAJB6 / RFU, CACNA2D3 / Fold change vs veh, CACNA2D3 / RFU, DTX4 / Fold change vs veh, DTX4 / RFU, TFCP2 / Fold change vs veh, TFCP2 / RFU, GMCL1 /// GMCL1P1 / Fold change vs veh, GMCL1 /// GMCL1P1 / RFU, AEBP2 / Fold change vs veh, AEBP2 / RFU, SNHG1 /// SNORD22 /// SNORD25 /// SNORD26 /// SNORD27 /// SNORD28 /// SNORD29 /// SNORD31 / Fold change vs veh, SNHG1 /// SNORD22 /// SNORD25 /// SNORD26 /// SNORD27 /// SNORD28 /// SNORD29 /// SNORD31 / Fold change (Aza/veh), C12orf56 (ProbeSet 11735607_a_at) / Fold change (ACY-1035/veh), C12orf56 (ProbeSet 11735607_a_at) / Fold change (Aza/veh), FGFR1OP (ProbeSet 11751329_s_at) / Fold change (ACY-1035/veh), FGFR1OP (ProbeSet 11751329_s_at) / Fold change (Aza/veh), VPS36 (ProbeSet 11739960_a_at) / Fold change (ACY-1035/veh), VPS36 (ProbeSet 11739960_a_at) / RFU SYPL1 (11715823_x_at) / Fold change /veh SYPL1 (11715823_x_at) / RFU IGFBP7 (11715501_s_at) / Fold change /veh IGFBP7 (11715501_s_at) / RFU REEP3 (11722064_at) / Fold change /veh REEP3 (11722064_at) / RFU IGLL1 (11728026_x_at) / Fold change /veh IGLL1 (11728026_x_at): dose or concentration left out as unconfirmed
Settings: ProbeSet 11715478_a_at; LIST B

## Nc1ncn([C@@H]2O[C@H](CO)[C@@H](O)[C@H]2O)c(=O)n1 [azacitidine]
  Fold change vs veh, TFRC: 0.85
